Laboratory results published in paper PMC2829555, “The zebrafish genome encodes the largest vertebrate repertoire of functional aquaporins with dual paralogy and substrate specificities similar to mammals” (BMC Evolutionary Biology, 2010).

How the values were obtained:
Assay in all cases: radiolabelled solute uptake in cRNA-injected oocytes
Assay type in all cases: cell-based
Conditions in all cases: MBS buffer, 1 mM solute, 10 min, room temperature; labelled compound
[1] = target: T1, DrAqp8aa (Danio rerio, UniProt Q66I64)
T1 construct: gene aqp8a.1; full-length cDNA in pT7Ts, untagged, cRNA-injected Xenopus laevis oocytes
T1 sequence (Q66I64 1-260): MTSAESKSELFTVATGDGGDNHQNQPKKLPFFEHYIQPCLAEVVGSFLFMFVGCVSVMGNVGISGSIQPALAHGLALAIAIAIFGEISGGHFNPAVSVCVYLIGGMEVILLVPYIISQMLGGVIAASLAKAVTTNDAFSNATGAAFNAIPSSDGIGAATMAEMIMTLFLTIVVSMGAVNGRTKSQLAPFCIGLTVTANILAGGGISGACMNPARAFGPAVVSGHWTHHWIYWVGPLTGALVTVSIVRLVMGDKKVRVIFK

[2] = target: T2, DrAqp3b (Danio rerio, UniProt D3TI80)
T2 construct: gene aqp3b; full-length cDNA in pT7Ts, untagged, cRNA-injected Xenopus laevis oocytes
T2 sequence (D3TI80 1-299): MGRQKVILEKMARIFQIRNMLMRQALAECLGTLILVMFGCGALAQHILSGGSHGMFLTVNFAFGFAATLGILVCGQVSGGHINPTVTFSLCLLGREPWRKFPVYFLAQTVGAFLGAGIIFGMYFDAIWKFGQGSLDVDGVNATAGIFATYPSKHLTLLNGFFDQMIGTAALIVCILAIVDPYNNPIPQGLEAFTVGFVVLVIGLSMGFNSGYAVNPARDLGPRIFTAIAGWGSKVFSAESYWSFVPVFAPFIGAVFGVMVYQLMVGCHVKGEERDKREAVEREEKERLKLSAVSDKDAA

[3] = target: T3, DrAqp3a (Danio rerio, UniProt Q803U6)
T3 construct: gene aqp3a; full-length cDNA in pT7Ts, untagged, cRNA-injected Xenopus laevis oocytes
T3 sequence (Q803U6 1-296): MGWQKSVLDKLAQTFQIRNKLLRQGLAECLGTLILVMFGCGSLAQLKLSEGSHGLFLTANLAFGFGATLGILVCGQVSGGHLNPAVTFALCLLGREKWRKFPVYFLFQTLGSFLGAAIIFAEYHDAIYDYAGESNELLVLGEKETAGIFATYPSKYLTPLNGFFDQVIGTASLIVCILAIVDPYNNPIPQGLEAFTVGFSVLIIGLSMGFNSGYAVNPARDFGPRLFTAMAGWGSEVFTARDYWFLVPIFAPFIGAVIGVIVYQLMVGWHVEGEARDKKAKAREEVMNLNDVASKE

[4] = target: T4, DrAqp8ab (Danio rerio, UniProt A0A8N1TQ94)
T4 construct: gene aqp8a.2; full-length cDNA in pT7Ts, untagged, cRNA-injected Xenopus laevis oocytes
T4 sequence (A0A8N1TQ94 1-257): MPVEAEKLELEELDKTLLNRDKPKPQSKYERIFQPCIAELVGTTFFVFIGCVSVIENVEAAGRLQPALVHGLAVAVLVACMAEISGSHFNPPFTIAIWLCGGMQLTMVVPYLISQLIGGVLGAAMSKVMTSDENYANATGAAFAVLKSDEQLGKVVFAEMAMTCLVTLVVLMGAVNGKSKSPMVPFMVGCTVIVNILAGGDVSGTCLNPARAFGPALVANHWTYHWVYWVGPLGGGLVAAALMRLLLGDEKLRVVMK

[5] = target: T5, DrAqp9b (Danio rerio, UniProt D5FFZ1)
T5 construct: gene aqp9b; full-length cDNA in pT7Ts, untagged, cRNA-injected Xenopus laevis oocytes; FJ655387 is printed for both 9a and 9b
T5 sequence (D5FFZ1 1-291): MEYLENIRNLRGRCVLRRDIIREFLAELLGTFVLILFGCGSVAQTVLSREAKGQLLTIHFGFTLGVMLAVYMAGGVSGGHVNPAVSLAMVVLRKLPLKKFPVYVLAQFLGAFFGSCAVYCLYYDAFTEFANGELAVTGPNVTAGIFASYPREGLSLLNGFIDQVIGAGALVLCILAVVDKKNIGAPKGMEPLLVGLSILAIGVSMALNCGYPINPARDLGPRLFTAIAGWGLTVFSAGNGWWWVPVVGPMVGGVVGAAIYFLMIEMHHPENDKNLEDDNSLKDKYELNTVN

[6] = target: T6, DrAqp9a (Danio rerio, UniProt Q498W2)
T6 construct: gene aqp9a; full-length cDNA in pT7Ts, untagged, cRNA-injected Xenopus laevis oocytes
T6 sequence (Q498W2 1-294): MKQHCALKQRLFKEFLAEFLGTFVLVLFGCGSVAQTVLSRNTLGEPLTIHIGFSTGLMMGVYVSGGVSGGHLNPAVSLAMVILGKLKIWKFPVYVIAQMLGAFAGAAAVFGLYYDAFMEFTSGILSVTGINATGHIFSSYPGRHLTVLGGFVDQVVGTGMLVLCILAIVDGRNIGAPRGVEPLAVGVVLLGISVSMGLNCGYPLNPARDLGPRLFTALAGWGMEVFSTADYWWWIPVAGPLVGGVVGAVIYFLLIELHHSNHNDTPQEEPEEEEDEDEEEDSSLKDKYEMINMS

[7] = target: T7, DrAqp7 (Danio rerio, UniProt D3TZW4)
T7 construct: gene aqp7; full-length cDNA in pT7Ts, untagged, cRNA-injected Xenopus laevis oocytes
T7 sequence (D3TZW4 1-303): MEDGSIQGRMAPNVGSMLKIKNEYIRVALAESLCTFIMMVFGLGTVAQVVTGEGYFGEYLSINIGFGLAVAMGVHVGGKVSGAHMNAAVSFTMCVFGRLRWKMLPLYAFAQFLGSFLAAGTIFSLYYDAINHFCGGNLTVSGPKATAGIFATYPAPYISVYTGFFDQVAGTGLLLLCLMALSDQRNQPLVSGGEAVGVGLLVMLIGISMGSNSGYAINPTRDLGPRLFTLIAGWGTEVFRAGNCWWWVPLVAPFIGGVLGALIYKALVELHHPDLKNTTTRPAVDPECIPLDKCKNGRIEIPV

[8] = target: T8, DrAqp10a (Danio rerio, UniProt A0A8M1N0C8)
T8 construct: gene aqp10a; full-length cDNA in pT7Ts, untagged, cRNA-injected Xenopus laevis oocytes
T8 sequence (A0A8M1N0C8 1-293): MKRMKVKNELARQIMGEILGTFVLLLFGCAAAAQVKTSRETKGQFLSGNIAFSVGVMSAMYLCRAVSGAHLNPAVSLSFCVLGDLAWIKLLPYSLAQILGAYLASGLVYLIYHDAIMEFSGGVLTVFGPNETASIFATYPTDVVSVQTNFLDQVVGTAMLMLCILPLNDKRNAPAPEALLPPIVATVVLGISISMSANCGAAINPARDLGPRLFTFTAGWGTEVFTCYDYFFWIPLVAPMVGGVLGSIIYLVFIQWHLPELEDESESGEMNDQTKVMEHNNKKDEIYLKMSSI

[9] = target: T9, DrAqp10b (Danio rerio, UniProt Q1L8T0)
T9 construct: gene aqp10b; full-length cDNA in pT7Ts, untagged, cRNA-injected Xenopus laevis oocytes
T9 sequence (Q1L8T0 1-276): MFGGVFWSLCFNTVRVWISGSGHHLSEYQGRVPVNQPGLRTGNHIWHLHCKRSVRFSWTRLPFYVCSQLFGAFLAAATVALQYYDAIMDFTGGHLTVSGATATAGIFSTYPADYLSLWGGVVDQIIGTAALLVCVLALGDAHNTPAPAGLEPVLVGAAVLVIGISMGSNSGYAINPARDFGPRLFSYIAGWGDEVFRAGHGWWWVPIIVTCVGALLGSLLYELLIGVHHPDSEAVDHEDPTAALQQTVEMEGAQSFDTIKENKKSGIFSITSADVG

Structure (SMILES) | radiolabelled solute uptake in cRNA-injected oocytes [1] | radiolabelled solute uptake in cRNA-injected oocytes [2] | radiolabelled solute uptake in cRNA-injected oocytes [3] | radiolabelled solute uptake in cRNA-injected oocytes [4] | radiolabelled solute uptake in cRNA-injected oocytes [5] | radiolabelled solute uptake in cRNA-injected oocytes [6] | radiolabelled solute uptake in cRNA-injected oocytes [7] | radiolabelled solute uptake in cRNA-injected oocytes [8] | radiolabelled solute uptake in cRNA-injected oocytes [9]
NC(N)=O [urea] | Oocytes expressing draqp8aa or -8ab were permeable to water and urea, but not glycerol | draqp3a, -3b, -7, -9a, -9b, -10a and -10b were also permeable to glycerol and urea | draqp3a, -3b, -7, -9a, -9b, -10a and -10b were also permeable to glycerol and urea | Oocytes expressing draqp8aa or -8ab were permeable to water and urea, but not glycerol | draqp3a, -3b, -7, -9a, -9b, -10a and -10b were also permeable to glycerol and urea | draqp3a, -3b, -7, -9a, -9b, -10a and -10b were also permeable to glycerol and urea | draqp3a, -3b, -7, -9a, -9b, -10a and -10b were also permeable to glycerol and urea | draqp3a, -3b, -7, -9a, -9b, -10a and -10b were also permeable to glycerol and urea | in the case of draqp10b urea permeability was low
OCC(O)CO [glycerol] | – | draqp3a, -3b, -7, -9a, -9b, -10a and -10b were also permeable to glycerol and urea | draqp3a, -3b, -7, -9a, -9b, -10a and -10b were also permeable to glycerol and urea | – | draqp3a, -3b, -7, -9a, -9b, -10a and -10b were also permeable to glycerol and urea | draqp3a, -3b, -7, -9a, -9b, -10a and -10b were also permeable to glycerol and urea | draqp3a, -3b, -7, -9a, -9b, -10a and -10b were also permeable to glycerol and urea | draqp3a, -3b, -7, -9a, -9b, -10a and -10b were also permeable to glycerol and urea | draqp3a, -3b, -7, -9a, -9b, -10a and -10b were also permeable to glycerol and urea
